According to patent US10800755B2, “2,6-disubstituted pyridine derivative” (Sumitomo Dainippon Pharma Co., Ltd., priority 2017, dated 2020):
Read-outs that look alike come from different tables or passages of the source.

Legend:
[1] = Test 3-1: metabolic stability test of human liver microsome (0.1 mg/mL); format: in vitro ADME; conditions: test compound 0.1 μmol/L, 37° C., 30 minutes
Protocol: Test 3-1: Metabolic Stability Test of Human Liver Microsome
(§1) The stability of the present compounds for human liver microsome metabolism was evaluated as mentioned below. The used human liver microsome was obtained from Xenontech. Human liver microsome, NADPH, and each test compound were mixed in 25 mmol/L phosphate buffer solution (pH 7.4) to adjust each concentration as shown below, and the mixture was incubated at 37° C. for 30 minutes. • human liver microsome: 0.1 mg/mL • NAPDH: 3.2 mmol/L • test compound: 0.1 μmol/L
(§2) The residual ratio of the test compound in each sample after the incubation for 30 minutes was measured with a LC-MS, and the metabolic stability of human liver microsome was calculated about each test compound with the following formula. Metabolic stability of human liver microsome (mL/min/mg protein)=−LN (residual ratio)/“reaction time”/“concentration of human liver microsome”

human D4 receptor [2] = target: T1, human D4 receptor (Homo sapiens (Human), UniProt P21917); assay: Test 1: agonistic activity for human D4 receptor (aequorin/Gα16 luminescence in CHO-K1 cell); format: cell-based; conditions: for Emax: CHO-K1, 100% = 10 μmol/L endogenous ligand; for EC50: CHO-K1 cell, aequorin luminescence
Protocol: (§3) Test 1: Evaluation of Agonistic Activity for Human 5-HT1A Receptor and Human D4 Receptor
(§4) Aequorin, Gα16 proteins, and each receptor were transiently expressed in CHO-K1 cell (Chinese hamster ovary), and seeded to 384-well plate. The plate was incubated in a CO2 incubator at 37° C. for 24 hours. Each example compound dissolved in DMSO was added thereto, and the change of luminescence amount was measured with Hamamatsu FDSS/μCELL System (Hamamatsu Photonics).

hERG channel = hERG channel (Homo sapiens (Human), UniProt Q12809); assay: Test 5-1: activity for inhibiting hERG channel (whole-cell patch clamp, hERG-CHO cell, Qpatch); format: cell-based; conditions: read-out: hERG inhibition IC50
Protocol: Test 5-1: Evaluation of Activity for Inhibiting hERG Channel
The activity of the present compound for inhibiting hERG channel was measured by whole-cell patch clamp method with auto patch clamp system, using CHO cell wherein hERG channel involved in human rapidly activating delayed rectifier potassium current (IKr) was forcibly expressed.
hERG-CHO cell purchased from ChanTest was incubated at 37° C. in a CO2 incubator, and the cell was exfoliated from the flask with trypsin to prepare a cell suspension, shortly before the hERG current measurement.
Extracellular fluid: 2 mmol/L CaCl2, 1 mmol/L MgCl2, 10 mmol/L HEPES, 4 mmol/L KCl, 145 mmol/L NaCl, 10 mmol/L glucose
Intracellular fluid: 5.4 mmol/L CaCl2, 1.8 mmol/L MgCl2, 10 mmol/L HEPES, 31 mmol/L KOH, 10 mmol/L EGTA, 120 mmol/L KCl, 4 mmol/L Na2-ATP
Test compound solution: The test compound was dissolved in DMSO by adjusting the concentration to 2 mmol/L or 20 mmol/L to prepare each test compound solution. […] (Measurement of Current Value and Data Analysis)
The cell suspension, the extracellular fluid, the intracellular fluid, and the measurement plate were set in an auto patch clamp system, and the hERG current was measured by whole-cell patch clamp method. […] Each pulse interval was 15 seconds. The data analysis was carried out with Qpatch Assay Software (Biolin Scientific). The test was carried out applying increscently 4 concentrations of each test compound, and the average of the peak tail currents that were obtained by the last 3 stimulations in each applied concentration was determined to be the evaluated data. By using the current inhibition rate for the pre-applied current at each concentration of each test compound, IC50 value was calculated by Hill equation with the software.

[3] = Test 4-1: predictive test of human half-life (monkey distribution volume, serum unbound fraction, Test 3-1 stability); conditions: in vivo, predicted using Test 3-1 metabolic stability
Protocol: Test 4-1: Predictive Test of Human Half-Life
(§5) 0.01 mol/L of the present compound in aqueous hydrochloric acid solution was parenterally administered to cynomolgus monkey. 5 minutes, 15 minutes, 30 minutes, 1 hour, 2 hours, 4 hours, 6 hours, and 24 hours after the administration, the blood was collected. The plasma was obtained from the collected blood, the drug concentration in the plasma was measured with a LC-MS, and the monkey distribution volume was calculated from the transition of the concentrations. The unbound fraction rate of the present compound in serum of human and monkey was measured by equilibrium dialysis method.
Using the monkey distribution volume, the unbound fraction rate in serum of human and monkey, and the result of the metabolic stability of human liver microsome which was obtained in Test 3-1, the half-life in human was calculated according to the formula below. “Human distribution volume”=“monkey distribution volume”×“unbound fraction rate in serum of human”/“unbound fraction rate in serum of monkey” “Human hepatic clearance”=(“human hepatic blood flow”×“unbound fraction rate in serum of human”×56.7×“metabolic stability of human liver microsome”)/(“human hepatic blood flow”+“unbound fraction rate in serum of human”×56.7×“metabolic stability of human liver microsome”) “Half-life in human”=0.693×“human distribution volume”/“human hepatic clearance”

SD male rat = assay: Test 6: contextual fear conditioning test; format: in vivo; conditions: 10 mg/kg administration
Protocol: Test 6: Contextual Fear Conditioning Test
The antianxiety of the present compounds was evaluated in a manner mentioned below.
The evaluation of an 8-week-old SD male rat with a fear conditioning test system (O'HARA & CO., LTD.) was carried out in 2-day test schedule. On the 1st day of the test, by giving 0.5 mA of electric shock to the rat as unconditioned stimulus 5 times for 6 minutes, the rat was made to learn the relationship the context (the illuminance in the cage: 200 lx) which was given as conditioned stimulus, and phobic stimulus. On the 2nd day, the present compound was subcutaneously administered with saline solution to the rat, or orally administered with methylcellulose suspension to the rat. 0.5 or 1 hour after the administration, the rat was made to softly enter the cage under the condition in which the unconditioned stimulus was not given in the context. The time of cataleptic freezing reaction that the rat took for 5-minute freely-moving period and its ratio were measured. The ratios of cataleptic freezing reaction between the solvent-administration group and the present compound-administration group were compared to be statistically processed.

human 5-HT1A receptor [4] = target: T2, human 5-HT1A receptor (Homo sapiens (Human), UniProt P08908); assay: Test 1: agonistic activity for human 5-HT1A receptor (aequorin/Gα16 luminescence in CHO-K1 cell); format: cell-based; conditions: for Emax: CHO-K1, 100% = 10 μmol/L endogenous ligand; for EC50: CHO-K1 cell, aequorin luminescence
Protocol: as §3, §4

[5] = Test 3-2: metabolic stability test of human liver microsome (0.5 or 1.0 mg/mL); format: in vitro ADME; conditions: test compound 0.1 μmol/L, 37° C., 30 minutes
Protocol: Test 3-2: Metabolic Stability Test of Human Liver Microsome
as §1, with “In order to evaluate the metabolic stability of human liver microsomes more precisely, the stability” for “The stability”, “evaluated with a suitable concentration of human liver microsome,” for “evaluated”, “microsome: 0.5 or 1.0” for “microsome: 0.1”
as §2

human D4 receptor [6] = target: T1, human D4 receptor; assay: Test 2: binding activity to human D4 receptor ([3H] dopamine, CHO cell membrane)
Protocol: (§6) Test 2: Evaluation of Binding Activity to Human 5-HT1A Receptor, Human D4 Receptor, and Human D2 Receptor
(§7) CHO cell membrane fraction in which human 5-HT1A receptor, human D4 receptor, and human D2 receptor were expressed was purchased from PerkinElmer Co., Ltd. In the evaluation test of binding, the test compound dissolved in DMSO, each receptor membrane preparation diluted with buffer solution, and [3H] […] The nonspecific binding to each receptor was evaluated by a competition binding experiment in the presence of 10 μmol/L 8-OH-DPAT, 10 μmol/L dopamine, or 10 μmol/L spiperone, respectively.

[7] = Test 4-2: predictive test of human half-life (monkey distribution volume, serum unbound fraction, Test 3-2 stability); conditions: in vivo, predicted using Test 3-2 metabolic stability
Protocol: Test 4-2: Predictive Test of Human Half-Life
as §5
Using the monkey distribution volume, the unbound fraction rate in serum of human and monkey, and the result of the metabolic stability of human liver microsome which was obtained in Test 3-2, the half-life in human was calculated according to the formula below. “Human distribution volume”=“monkey distribution volume”×“unbound fraction rate in serum of human”/“unbound fraction rate in serum of monkey” “Human hepatic clearance”=(“human hepatic blood flow”×“unbound fraction rate in serum of human”×56.7×“metabolic stability of human liver microsome”)/(“human hepatic blood flow”+“unbound fraction rate in serum of human”×56.7×“metabolic stability of human liver microsome”) “Half-life in human”=0.693×“human distribution volume”/“human hepatic clearance”

human D2 receptor = human D2 receptor (Homo sapiens (Human), UniProt P14416); assay: Test 2: binding activity to human D2 receptor ([3H] spiperone, CHO cell membrane); conditions: [3H] spiperone; read-out: D2 binding affinity (Ki value)
Protocol: as §6, §7

human 5-HT1A receptor [8] = target: T2, human 5-HT1A receptor; assay: Test 2: binding activity to human 5-HT1A receptor ([3H] 8-OH-DPAT, CHO cell membrane); conditions: [3H] 8-OH-DPAT; read-out: 5-HT1A binding affinity (Ki value)
Protocol: as §6, §7

Wistar male rat = assay: Test 9: microdialysis test (release amount of intracerebral monoamine, orbitofrontal cortex); format: in vivo; conditions: combination administration with sertraline or single administration
Protocol: Test 9: Microdialysis Test
The effect of the present compound for the release amount of intracerebral monoamine was evaluated in a manner mentioned below.
8-Week-old Wistar male rat was fixed on a brain stereotaxic apparatus under anesthesia. The scalp was incised, the subcutaneous tissue was removed, the position of the bregma was measured, and the installation position of a guide cannula was calculated (the position of the orbitofrontal cortex which defined according to the brain stereotaxic coordinates of Paxinos & Watson (2.0 mm right, 4.2 mm anterior from bregma)). The skull was drilled with a dental drill at the installation position of the guide cannula, and an anchor screw was set about 1 cm posterior to the hole. The guide cannula was set and fixed with a dental cement, and then the scalp was sutured. The animal was released from the brain stereotaxic apparatus, and was moved back to the breeding cage. In the event of the test, the rat was put in an acrylic observable cage, and a dialysis probe was inserted along the guide cannula to connect to a free-moving tube. With an infusion pump, Ringer solution was perfused at 2 μL/min, and the dialysis solution was recovered at 20-minute intervals. […] The recovered dialysis solutions were analyzed with a HPLC-ECD system to determine the contents of norepinephrine (NE), dopamine (DA), and serotonin (5-HT).

[9] = [3H] dopamine, read-out: D4 binding affinity (Ki value)

T2 sequence (P08908 whole entry): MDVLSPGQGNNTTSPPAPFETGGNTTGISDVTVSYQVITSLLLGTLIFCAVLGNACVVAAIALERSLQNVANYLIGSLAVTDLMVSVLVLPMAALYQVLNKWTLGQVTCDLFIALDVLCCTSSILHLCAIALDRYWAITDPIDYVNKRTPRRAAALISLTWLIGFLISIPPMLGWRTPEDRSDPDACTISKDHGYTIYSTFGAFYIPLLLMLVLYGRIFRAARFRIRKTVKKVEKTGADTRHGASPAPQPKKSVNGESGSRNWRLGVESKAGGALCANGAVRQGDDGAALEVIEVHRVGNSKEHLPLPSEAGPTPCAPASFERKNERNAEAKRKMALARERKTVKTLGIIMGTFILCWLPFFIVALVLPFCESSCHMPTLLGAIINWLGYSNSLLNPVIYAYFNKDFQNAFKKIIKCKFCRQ
T1 sequence (P21917 whole entry): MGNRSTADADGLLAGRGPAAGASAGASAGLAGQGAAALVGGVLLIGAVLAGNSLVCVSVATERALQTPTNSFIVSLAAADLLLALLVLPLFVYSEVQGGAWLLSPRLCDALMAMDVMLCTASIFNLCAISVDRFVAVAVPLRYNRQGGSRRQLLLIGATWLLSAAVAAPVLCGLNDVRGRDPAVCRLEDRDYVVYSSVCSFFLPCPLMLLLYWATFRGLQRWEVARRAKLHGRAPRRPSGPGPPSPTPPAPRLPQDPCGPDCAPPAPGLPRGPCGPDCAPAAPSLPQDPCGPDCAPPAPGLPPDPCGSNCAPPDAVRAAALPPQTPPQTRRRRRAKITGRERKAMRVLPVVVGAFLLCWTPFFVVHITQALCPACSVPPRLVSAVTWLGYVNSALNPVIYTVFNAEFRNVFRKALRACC
Sequence of human D2 receptor (P14416 whole entry): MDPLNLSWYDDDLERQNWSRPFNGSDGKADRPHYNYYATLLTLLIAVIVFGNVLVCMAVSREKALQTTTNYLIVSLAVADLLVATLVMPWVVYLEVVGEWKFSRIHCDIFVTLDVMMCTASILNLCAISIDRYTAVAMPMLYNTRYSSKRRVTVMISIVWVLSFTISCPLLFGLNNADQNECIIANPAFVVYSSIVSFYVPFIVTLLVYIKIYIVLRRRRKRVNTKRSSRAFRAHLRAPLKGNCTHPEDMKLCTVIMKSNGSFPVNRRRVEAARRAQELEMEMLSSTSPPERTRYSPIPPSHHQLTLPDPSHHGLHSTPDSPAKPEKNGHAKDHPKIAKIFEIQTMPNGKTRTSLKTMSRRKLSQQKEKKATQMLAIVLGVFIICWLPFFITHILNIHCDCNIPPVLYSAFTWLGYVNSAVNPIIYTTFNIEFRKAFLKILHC
Sequence of hERG channel (Q12809 whole entry): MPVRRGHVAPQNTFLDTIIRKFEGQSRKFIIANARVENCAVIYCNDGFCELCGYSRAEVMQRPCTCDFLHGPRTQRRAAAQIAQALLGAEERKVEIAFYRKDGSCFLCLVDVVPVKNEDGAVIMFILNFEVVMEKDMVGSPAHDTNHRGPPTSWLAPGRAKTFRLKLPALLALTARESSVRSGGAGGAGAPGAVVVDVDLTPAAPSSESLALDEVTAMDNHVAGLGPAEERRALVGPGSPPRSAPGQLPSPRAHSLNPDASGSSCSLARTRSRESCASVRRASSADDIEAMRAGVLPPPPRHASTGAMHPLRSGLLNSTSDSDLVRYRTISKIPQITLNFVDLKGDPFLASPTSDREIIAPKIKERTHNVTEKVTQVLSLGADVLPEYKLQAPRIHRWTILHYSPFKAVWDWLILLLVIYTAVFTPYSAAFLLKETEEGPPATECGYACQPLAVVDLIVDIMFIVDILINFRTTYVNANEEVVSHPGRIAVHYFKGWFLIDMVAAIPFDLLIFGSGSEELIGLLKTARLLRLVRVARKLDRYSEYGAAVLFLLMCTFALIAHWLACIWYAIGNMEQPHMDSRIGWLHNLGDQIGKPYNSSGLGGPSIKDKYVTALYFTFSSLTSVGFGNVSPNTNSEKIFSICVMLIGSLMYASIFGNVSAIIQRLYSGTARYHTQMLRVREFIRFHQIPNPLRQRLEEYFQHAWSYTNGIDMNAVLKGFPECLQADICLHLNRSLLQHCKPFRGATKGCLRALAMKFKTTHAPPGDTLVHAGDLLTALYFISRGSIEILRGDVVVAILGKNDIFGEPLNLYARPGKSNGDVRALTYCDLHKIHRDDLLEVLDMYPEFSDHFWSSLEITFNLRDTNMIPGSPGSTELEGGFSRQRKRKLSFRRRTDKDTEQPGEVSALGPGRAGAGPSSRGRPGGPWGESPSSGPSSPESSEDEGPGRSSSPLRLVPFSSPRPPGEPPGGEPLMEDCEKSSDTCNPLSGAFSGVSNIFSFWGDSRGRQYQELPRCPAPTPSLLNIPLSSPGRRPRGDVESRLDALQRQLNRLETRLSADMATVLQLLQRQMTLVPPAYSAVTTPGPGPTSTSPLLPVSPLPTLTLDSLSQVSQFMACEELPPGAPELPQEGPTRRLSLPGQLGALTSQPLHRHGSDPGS

Row | Metabolic stability of human liver microsome [1] [mL/min/mg protein] | Emax (human D4 receptor [2]) [%] | EC50 (human D4 receptor [2]) [µM] | Emax (human 5-HT1A receptor [4]) [%] | EC50 (human 5-HT1A receptor [4]) [µM] | Metabolic stability of human liver microsome [5] [mL/min/mg protein] | Ki (human D4 receptor [6]; [9]) [µM] | half-life [7] [h] | Ki (human D2 receptor) [µM] | Ki (human 5-HT1A receptor [8]) [µM] | Structure (SMILES) | IC50 (hERG channel) [µM] | half-life [3] [h] | decrease of the cataleptic freezing reaction for the solvent-administration group (SD male rat) [%] | serotonin content (Wistar male rat) | Ki (human D4 receptor [6]) [µM]
1 | 0.017 | 65 | 0.0371 | 71 | < 0.01 | 0.023 | 0.111 | 59 | > 10 | 0.0014 | Cc1cccc(C2CCN(CCNC(=O)C3CCOCC3)CC2)n1 [Example 8, N-{2-[4-(6-Methylpyridin-2-yl)piperidin-1-yl]ethyl}-tetrahydro-2H-pyran-4-carboxamide] | 44.3 | 9.2 | 41.0 | – | –
2 | 0.025 | 53 | < 0.01 | 84 | < 0.01 | 0.016 | 0.008 | 10 | 2.44 | 0.0011 | CC(C)(C)C(=O)NCCN1CCC(c2cccc(C(F)(F)F)n2)CC1 [Example 9, 2,2-dimethyl-N-(2-{4-[6-(trifluoromethyl)pyridin-2-yl]piperidin-1-yl}ethyl)propanamide] | 5.9 | – | – | – | –

Row | Structure (SMILES) | Metabolic stability of human liver microsome [1] [mL/min/mg protein] | Emax (human D4 receptor [2]) [%] | EC50 (human D4 receptor [2]) [µM] | Emax (human 5-HT1A receptor [4]) [%] | EC50 (human 5-HT1A receptor [4]) [µM] | Metabolic stability of human liver microsome [5] [mL/min/mg protein] | Ki (human D4 receptor [6]; [9]) [µM] | half-life [7] [h] | Ki (human D2 receptor) [µM] | Ki (human 5-HT1A receptor [8]) [µM] | IC50 (hERG channel) [µM] | half-life [3] [h] | decrease of the cataleptic freezing reaction for the solvent-administration group (SD male rat) [%] | serotonin content (Wistar male rat) | Ki (human D4 receptor [6]) [µM]
3 | O=C(NCCN1CCC(c2cccc(C(F)(F)F)n2)CC1)C1CCOCC1 [Example 11, N-(2-{4-[6-(Trifluoromethyl)pyridin-2-yl]piperidin-1-yl}ethyl)-tetrahydro-2H-pyran-4-carboxamide] | – | 56 | 0.0308 | 92 | 0.082 | 0.0075 | – | 17 | > 10 | 0.0021 | – | 13 | – | did not decrease the serotonin content | 0.044
